From the CheMixHub viscosity set

Test: xn = mol fraction of the nth substance listed

NC=O + CCCO
Conditions | viscosity [mPa·s]
293.15 K, 101 kPa, x1 = 0.0557 | 2.16
293.15 K, 101 kPa, x1 = 0.1172 | 2.201
293.15 K, 101 kPa, x1 = 0.1854 | 2.285
293.15 K, 101 kPa, x1 = 0.2615 | 2.419
298.15 K, 100 kPa, x1 = 0.0744 | 1.97
298.15 K, 100 kPa, x1 = 0.116 | 1.98
298.15 K, 100 kPa, x1 = 0.1885 | 2.07
298.15 K, 100 kPa, x1 = 0.294 | 2.27
298.15 K, 100 kPa, x1 = 0.3225 | 2.33
298.15 K, 100 kPa, x1 = 0.331 | 2.4
298.15 K, 100 kPa, x1 = 0.4121 | 2.54
298.15 K, 100 kPa, x1 = 0.4562 | 2.61
298.15 K, 100 kPa, x1 = 0.4974 | 2.73
298.15 K, 100 kPa, x1 = 0.5225 | 2.76
298.15 K, 100 kPa, x1 = 0.6129 | 2.96
298.15 K, 100 kPa, x1 = 0.6877 | 3.09
298.15 K, 100 kPa, x1 = 0.7379 | 3.17
298.15 K, 100 kPa, x1 = 0.8232 | 3.28
298.15 K, 100 kPa, x1 = 0.8536 | 3.31
298.15 K, 100 kPa, x1 = 0.9169 | 3.36
298.15 K, 100 kPa, x1 = 0.9506 | 3.34
298.15 K, 101 kPa, x1 = 0.0557 | 1.938
298.15 K, 101 kPa, x1 = 0.1172 | 1.976
298.15 K, 101 kPa, x1 = 0.1854 | 2.052
298.15 K, 101 kPa, x1 = 0.2615 | 2.181
303.15 K, 101 kPa, x1 = 0.0557 | 1.742
303.15 K, 101 kPa, x1 = 0.1172 | 1.775
303.15 K, 101 kPa, x1 = 0.1854 | 1.846
303.15 K, 101 kPa, x1 = 0.2615 | 1.962
303.15 K, 101 kPa, x2 = 0.0999 | 2.877
303.15 K, 101 kPa, x2 = 0.2004 | 2.813
303.15 K, 101 kPa, x2 = 0.3002 | 2.706
303.15 K, 101 kPa, x2 = 0.4 | 2.554
303.15 K, 101 kPa, x2 = 0.5 | 2.378
303.15 K, 101 kPa, x2 = 0.6 | 2.191
303.15 K, 101 kPa, x2 = 0.6998 | 2.022
303.15 K, 101 kPa, x2 = 0.8 | 1.87
303.15 K, 101 kPa, x2 = 0.9001 | 1.756
303.15 K, 101.3 kPa, x1 = 0.0961 | 1.6
303.15 K, 101.3 kPa, x1 = 0.1755 | 1.7
303.15 K, 101.3 kPa, x1 = 0.2494 | 1.8
303.15 K, 101.3 kPa, x1 = 0.3192 | 1.9
303.15 K, 101.3 kPa, x1 = 0.3902 | 2
303.15 K, 101.3 kPa, x1 = 0.4629 | 2.1
303.15 K, 101.3 kPa, x1 = 0.5342 | 2.2
303.15 K, 101.3 kPa, x1 = 0.614 | 2.4
303.15 K, 101.3 kPa, x1 = 0.6891 | 2.6
303.15 K, 101.3 kPa, x1 = 0.7654 | 2.7
303.15 K, 101.3 kPa, x1 = 0.8114 | 2.7
303.15 K, 101.3 kPa, x1 = 0.921 | 2.8
308.15 K, 101 kPa, x1 = 0.0557 | 1.584
308.15 K, 101 kPa, x1 = 0.1172 | 1.618
308.15 K, 101 kPa, x1 = 0.1854 | 1.678
308.15 K, 101 kPa, x1 = 0.2615 | 1.798
308.15 K, 101 kPa, x2 = 0.0999 | 2.554
308.15 K, 101 kPa, x2 = 0.2004 | 2.492
308.15 K, 101 kPa, x2 = 0.3002 | 2.393
308.15 K, 101 kPa, x2 = 0.4 | 2.261
308.15 K, 101 kPa, x2 = 0.5 | 2.11
308.15 K, 101 kPa, x2 = 0.6 | 1.949
308.15 K, 101 kPa, x2 = 0.6998 | 1.802
308.15 K, 101 kPa, x2 = 0.8 | 1.669
308.15 K, 101 kPa, x2 = 0.9001 | 1.569
308.15 K, 101.3 kPa, x1 = 0.0961 | 1.4
308.15 K, 101.3 kPa, x1 = 0.1755 | 1.5
308.15 K, 101.3 kPa, x1 = 0.2494 | 1.5
308.15 K, 101.3 kPa, x1 = 0.3192 | 1.6
308.15 K, 101.3 kPa, x1 = 0.3902 | 1.7
308.15 K, 101.3 kPa, x1 = 0.4629 | 1.8
308.15 K, 101.3 kPa, x1 = 0.5342 | 1.9
308.15 K, 101.3 kPa, x1 = 0.614 | 2.1
308.15 K, 101.3 kPa, x1 = 0.6891 | 2.2
308.15 K, 101.3 kPa, x1 = 0.7654 | 2.3
308.15 K, 101.3 kPa, x1 = 0.8114 | 2.4
308.15 K, 101.3 kPa, x1 = 0.921 | 2.5
313.15 K, 101 kPa, x1 = 0.0557 | 1.349
313.15 K, 101 kPa, x1 = 0.1172 | 1.388
313.15 K, 101 kPa, x1 = 0.1854 | 1.457
313.15 K, 101 kPa, x1 = 0.2615 | 1.595
313.15 K, 101 kPa, x2 = 0.0999 | 2.285
313.15 K, 101 kPa, x2 = 0.2004 | 2.223
313.15 K, 101 kPa, x2 = 0.3002 | 2.133
313.15 K, 101 kPa, x2 = 0.4 | 2.015
313.15 K, 101 kPa, x2 = 0.5 | 1.881
313.15 K, 101 kPa, x2 = 0.6 | 1.74
313.15 K, 101 kPa, x2 = 0.6998 | 1.61
313.15 K, 101 kPa, x2 = 0.8 | 1.494
313.15 K, 101 kPa, x2 = 0.9001 | 1.407
313.15 K, 101.3 kPa, x1 = 0.0961 | 1.3
313.15 K, 101.3 kPa, x1 = 0.1755 | 1.3
313.15 K, 101.3 kPa, x1 = 0.2494 | 1.4
313.15 K, 101.3 kPa, x1 = 0.3192 | 1.5
313.15 K, 101.3 kPa, x1 = 0.3902 | 1.6
313.15 K, 101.3 kPa, x1 = 0.4629 | 1.7
313.15 K, 101.3 kPa, x1 = 0.5342 | 1.7
313.15 K, 101.3 kPa, x1 = 0.614 | 1.9
313.15 K, 101.3 kPa, x1 = 0.6891 | 2
313.15 K, 101.3 kPa, x1 = 0.7654 | 2.1
313.15 K, 101.3 kPa, x1 = 0.8114 | 2.1
313.15 K, 101.3 kPa, x1 = 0.921 | 2.2
318.15 K, 101 kPa, x1 = 0.0557 | 1.219
318.15 K, 101 kPa, x1 = 0.1172 | 1.263
318.15 K, 101 kPa, x1 = 0.1854 | 1.333
318.15 K, 101 kPa, x2 = 0.0999 | 2.056
318.15 K, 101 kPa, x2 = 0.2004 | 1.995
318.15 K, 101 kPa, x2 = 0.3002 | 1.912
318.15 K, 101 kPa, x2 = 0.4 | 1.804
318.15 K, 101 kPa, x2 = 0.5 | 1.685
318.15 K, 101 kPa, x2 = 0.6 | 1.561
318.15 K, 101 kPa, x2 = 0.6998 | 1.447
318.15 K, 101 kPa, x2 = 0.8 | 1.344
318.15 K, 101 kPa, x2 = 0.9001 | 1.266
318.15 K, 101.3 kPa, x1 = 0.0961 | 1.1
318.15 K, 101.3 kPa, x1 = 0.1755 | 1.1
318.15 K, 101.3 kPa, x1 = 0.2494 | 1.2
318.15 K, 101.3 kPa, x1 = 0.3192 | 1.3
318.15 K, 101.3 kPa, x1 = 0.3902 | 1.4
318.15 K, 101.3 kPa, x1 = 0.4629 | 1.5
318.15 K, 101.3 kPa, x1 = 0.5342 | 1.5
318.15 K, 101.3 kPa, x1 = 0.614 | 1.6
318.15 K, 101.3 kPa, x1 = 0.6891 | 1.7
318.15 K, 101.3 kPa, x1 = 0.7654 | 1.8
318.15 K, 101.3 kPa, x1 = 0.8114 | 1.9
318.15 K, 101.3 kPa, x1 = 0.921 | 1.9
323.15 K, 101 kPa, x2 = 0.0999 | 1.86
323.15 K, 101 kPa, x2 = 0.2004 | 1.801
323.15 K, 101 kPa, x2 = 0.3002 | 1.722
323.15 K, 101 kPa, x2 = 0.4 | 1.624
323.15 K, 101 kPa, x2 = 0.5 | 1.517
323.15 K, 101 kPa, x2 = 0.6 | 1.405
323.15 K, 101 kPa, x2 = 0.6998 | 1.304
323.15 K, 101 kPa, x2 = 0.8 | 1.212
323.15 K, 101 kPa, x2 = 0.9001 | 1.141
323.15 K, 101.3 kPa, x1 = 0.0961 | 0.92
323.15 K, 101.3 kPa, x1 = 0.1755 | 0.95
323.15 K, 101.3 kPa, x1 = 0.2494 | 1
323.15 K, 101.3 kPa, x1 = 0.3192 | 1.05
323.15 K, 101.3 kPa, x1 = 0.3902 | 1.1
323.15 K, 101.3 kPa, x1 = 0.4629 | 1.2
323.15 K, 101.3 kPa, x1 = 0.5342 | 1.3
323.15 K, 101.3 kPa, x1 = 0.614 | 1.3
323.15 K, 101.3 kPa, x1 = 0.6891 | 1.4
323.15 K, 101.3 kPa, x1 = 0.7654 | 1.5
323.15 K, 101.3 kPa, x1 = 0.8114 | 1.5
323.15 K, 101.3 kPa, x1 = 0.921 | 1.6
